Usually EC50 stands for the concentration giving half of the maximal effect.

The test system of assay [1] is differentiated human THP-1 cells. As to the kind of experiment: stimulated release of TNF-α from differentiated human THP-1 cells (ELISA, dose-response). In kind it is cell-based. The note with it: for EC50: Homo sapiens. Summed up:
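Human THP-1 cells were PMA-differentiated toward macrophages, and stimulated TNF-α release was measured by ELISA. EC50 values were taken from dose-response curves.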
In general terms: ELISA stands for enzyme-linked immunosorbent assay.

Assay [2] relates to mouse macrophages. As to the kind of experiment: stimulated release of TNF-α from mouse macrophages. In kind it is cell-based. The note with it: for EC50: Macrophage. The method in brief: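 EC50 derived from dose-response curves for stimulated TNF-α release from mouse macrophages.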
[3] abbreviates: THP-1, Table 1, TNF-α release from human THP-1 cells, read-out: EC50 (nM) (THP-1).
[4] abbreviates: Table 1, TNF-α release from mouse macrophages, read-out: EC50 (nM) (mouse).
[5] abbreviates: THP-1, table of 140-146 (four lipid side chains), human THP-1 cells, read-out: EC50 (nM) (THP-1).
[6] abbreviates: table of 140-146 (four lipid side chains), mouse macrophages, read-out: EC50 (nM) (mouse).
Where [7] appears, read: THP-1, table of functionalized derivatives 147-151, human THP-1 cells, read-out: EC50 (nM) (THP-1).
Setting [8] is: table of functionalized derivatives 147-151, mouse macrophages, read-out: EC50 (nM) (mouse).
[9] abbreviates: THP-1, running text, read-out: EC50, stimulated release of TNF-α from differentiated human THP-1 cells.
[10] abbreviates: Mus musculus, read-out: EC50, stimulated release of TNF-α from mouse macrophages.
The mark [11] stands for this setting: THP-1, Table 3, TNF-α release from human THP-1 cells, read-out: EC50 (nM) (THP-1).
Where [12] appears, read: Table 3, TNF-α release from mouse macrophages, read-out: EC50 (nM) (mouse).

Read-outs that look alike come from different tables or passages of the source.

In the case of `O=C(N[C@H]1C[C@@H]1c1ccccc1)[C@@H]1CN(C(=O)c2cccc(C(=O)N3C[C@@H](C(=O)N[C@H]4C[C@@H]4c4ccccc4)[C@H](C(=O)N[C@H]4C[C@@H]4c4ccccc4)C3)c2)C[C@H]1C(=O)N[C@H]1C[C@@H]1c1ccccc1` [Compound 38, (3S,3′S,4S,4′S)-1,1′-Isophthaloyl-bis-(N^3,N^4-bis((1S,2R)-2-phenylcyclopropyl)-pyrrolidine-3,4-dicarboxamide)], the EC50 in assay [1] (setting [3]) and in assay [2] (setting [4]) was more than 5000 nM in each case.
Take `CCCCCCNC(=O)[C@@H]1CN(C(=O)c2ccc(C(=O)N3C[C@@H](C(=O)NCCCCCC)[C@H](C(=O)NCCCCCC)C3)cc2)C[C@H]1C(=O)NCCCCCC` [Compound 145, (3S,3′S,4S,4′S)-1,1′-Terephthaloylbis(N^3,N^4-dihexylpyrrolidine-3,4-dicarboxamide)]: the EC50 in assay [1] (setting [5]) and in assay [2] (setting [6]) was more than 5000 nM throughout.
With `O=C(N[C@H]1C[C@@H]1c1ccccc1)[C@@H]1CN(C(=O)COCC(=O)N2C[C@@H](C(=O)N[C@H]3C[C@@H]3c3ccccc3)[C@H](C(=O)N[C@H]3C[C@@H]3c3ccccc3)C2)C[C@H]1C(=O)N[C@H]1C[C@@H]1c1ccccc1` [Compound 40, (3S,3′S,4S,4′S)-1,1′-(2,2′-Oxybis-(acetyl))bis-(N^3,N^4-bis((1S,2R)-2-phenylcyclopropyl)pyrrolidine-3,4-dicarboxamide)], the EC50 in assay [1] (setting [3]) and in assay [2] (setting [4]) was more than 5000 nM in each case.
In the case of `CC(C)(C)OC(=O)CCOCCOCCOCCOc1cc(C(=O)N2C[C@@H](C(=O)N[C@H]3C[C@@H]3c3ccccc3)[C@H](C(=O)N[C@H]3C[C@@H]3c3ccccc3)C2)ccc1C(=O)N1C[C@@H](C(=O)N[C@H]2C[C@@H]2c2ccccc2)[C@H](C(=O)N[C@H]2C[C@@H]2c2ccccc2)C1` [Compound 148, tert-Butyl 3-(2-(2-(2-(2,5-Bis((3S,4S)-3,4-bis(((1S,2R)-2-phenyl-cyclopropyl)carbamoyl)-pyrrolidine-1-carbonyl)-phenoxy)ethoxy)ethoxy)-ethoxy)propanoate], the EC50 was 190 nM in assay [1] (setting [7]) and more than 5000 nM in assay [2] (setting [8]).
With `O=C(NC1C[C@@H]1c1ccc(F)cc1)[C@@H]1CN(C(=O)c2ccc(C(=O)N3C[C@@H](C(=O)NC4C[C@@H]4c4ccc(F)cc4)[C@H](C(=O)NC4C[C@@H]4c4ccc(F)cc4)C3)cc2)C[C@H]1C(=O)NC1C[C@@H]1c1ccc(F)cc1` (stereo partly drawn) [Compound 118, (3S,3′S,4S,4′S)-1,1′-Terephthaloyl-bis(N^3,N^4-bis-((1S,2R)-2-(4-fluorophenyl)cyclopropyl)pyrrolidine-3,4-dicarboxamide)], the EC50 in assay [1] (setting [9]) came out at 0.13 nM; in assay [2] (setting [10]), 1.2 nM.
For the compound `CC(C)(C)OC(=O)COCCOCCOCC(=O)Nc1cc(C(=O)N2C[C@@H](C(=O)N[C@H]3C[C@@H]3c3ccccc3)[C@H](C(=O)N[C@H]3C[C@@H]3c3ccccc3)C2)ccc1C(=O)N1C[C@@H](C(=O)N[C@H]2C[C@@H]2c2ccccc2)[C@H](C(=O)N[C@H]2C[C@@H]2c2ccccc2)C1` [Compound 150, tert-Butyl 2-(2-(2-(2-((2,5-Bis((3S,4S)-3,4-bis(((1S,2R)-2-phenylcyclopropyl)carbamoyl)-pyrrolidine-1-carbonyl)phenyl)amino)-2-oxoethoxy)ethoxy)ethoxy)acetate], the EC50 amounted to 15 nM in assay [1] (setting [7]) and 130 nM in assay [2] (setting [8]).
Take `O=C(N[C@H]1C[C@@H]1c1ccccc1)[C@@H]1CN(C(=O)C/C=C/CC(=O)N2C[C@@H](C(=O)N[C@H]3C[C@@H]3c3ccccc3)[C@H](C(=O)N[C@H]3C[C@@H]3c3ccccc3)C2)C[C@H]1C(=O)N[C@H]1C[C@@H]1c1ccccc1` [Compound 37, (3S,3′S,4S,4′S)-1,1′-((E)-Hex-3-enedoyl)bis-(N^3,N^4-bis((1S,2R)-2-phenylcyclopropyl)pyrrolidine-3,4-dicarboxamide)]: the EC50 in assay [1] (setting [3]) and in assay [2] (setting [4]) was more than 5000 nM throughout.
Consider `CCCCCCCCCCCCNC(=O)[C@@H]1CCN(C(=O)c2ccc(C(=O)N3C[C@@H](C(=O)N[C@H]4C[C@@H]4c4ccccc4)[C@H](C(=O)N[C@H]4C[C@@H]4c4ccccc4)C3)cc2)C1` [Compound 127, (3S,4S)-1-(4-((R)-3-(Dodecylcarbamoyl)-pyrrolidine-1-carbonyl)benzoyl)—N^3,N^4-bis((1S,2R)-2-phenylcyclopropyl)pyrrolidine-3,4-dicarboxamide], for which the EC50 is 9 nM in assay [1] (THP-1, table of 125-132 (one lipid side chain, R and S), human THP-1 cells, read-out: EC50 (nM) (THP-1)); 700 nM in assay [2] (table of 125-132 (one lipid side chain, R and S), mouse macrophages, read-out: EC50 (nM) (mouse)).
For the compound `Nc1cc(C(=O)N2C[C@@H](C(=O)N[C@H]3C[C@@H]3c3ccccc3)[C@H](C(=O)N[C@H]3C[C@@H]3c3ccccc3)C2)ccc1C(=O)N1C[C@@H](C(=O)N[C@H]2C[C@@H]2c2ccccc2)[C@H](C(=O)N[C@H]2C[C@@H]2c2ccccc2)C1` [Compound 55, (3S,3′S,4S,4′S)-1,1′-(2-Amino-terephthaloyl)-bis(N^3,N^4-bis((1S,2R)-2-phenylcyclopropyl)-pyrrolidine-3,4-dicarboxamide)], the EC50 amounted to 1 nM in assay [1] (setting [11]) and 140 nM in assay [2] (setting [12]).
For the compound `CCCCCCCCCCNC(=O)[C@@H]1CN(C(=O)c2ccc(C(=O)N3C[C@@H](C(=O)NCCCCCCCCCC)[C@H](C(=O)NCCCCCCCCCC)C3)cc2)C[C@H]1C(=O)NCCCCCCCCCC` [Compound 143, (3S,3′S,4S,4′S)-1,1′-Terephthaloylbis(N^3,N^4-didecylpyrrolidine-3,4-dicarboxamide)], the EC50 in assay [1] (setting [5]) and in assay [2] (setting [6]) was more than 5000 nM throughout.
For the compound `CCCCCCNC(=O)[C@@H]1CN(C(=O)c2ccc(C(=O)N3C[C@@H](C(=O)N[C@H]4C[C@@H]4c4ccccc4)[C@H](C(=O)N[C@H]4C[C@@H]4c4ccccc4)C3)cc2)C[C@H]1C(=O)NCCCCCC` [Compound 138, (3S,4S)-1-(4-((3S,4S)-3,4-Bis(((1S,2R)-2-phenylcyclopropyl)carbamoyl)-pyrrolidine-1-carbonyl)benzoyl)-N^3,N^4-dihexylpyrrolidine-3,4-dicarboxamide], the EC50 in assay [1] (setting [9]) came out at 0.18 nM; in assay [1] (THP-1, table of 133-139 (two lipid side chains), human THP-1 cells, read-out: EC50 (nM) (THP-1)) it was 0.18 nM; in assay [2] (table of 133-139 (two lipid side chains), mouse macrophages, read-out: EC50 (nM) (mouse)), 4 nM; in assay [2] (setting [10]), 4 nM. In assay [1] (human THP-1 cells), the “fold less active/potent than diprovocim-1 (3)” value is 2 fold. Also, in assay [1] (ratio of mouse to human potency), the “potency differential human THP-1 cells versus mouse macrophages” value was found to be 20 fold. Further, the “fold less potent/effective than diprovocim-1” value in assay [2] (mouse macrophages) stood at 4 fold.
Take `O=C(N[C@H]1C[C@@H]1c1ccccc1)[C@@H]1CN(C(=O)c2ccc(C(=O)N3C[C@@H](C(=O)N[C@H]4C[C@@H]4c4ccccc4)[C@H](C(=O)N[C@H]4C[C@@H]4c4ccccc4)C3)c3ccccc23)C[C@H]1C(=O)N[C@H]1C[C@@H]1c1ccccc1` [Compound 45, (3S,3′S,4S,4′S)-1,1′-(Naphthalene-1,4-dicarbonyl)bis(N^3,N^4-bis((1S,2R)-2-phenylcyclopropyl)-pyrrolidine-3,4-dicarboxamide)]: the EC50 in assay [1] (THP-1, Table 2, TNF-α release from human THP-1 cells, read-out: EC50 (nM) (THP-1)) is more than 5000 nM; in assay [2] (Table 2, TNF-α release from mouse macrophages, read-out: EC50 (nM) (mouse)) it was more than 5000 nM.
As for `O=C(N[C@H]1C[C@@H]1c1ccccc1)[C@@H]1CN(C(=O)/C=C/C=C/C(=O)N2C[C@@H](C(=O)N[C@H]3C[C@@H]3c3ccccc3)[C@H](C(=O)N[C@H]3C[C@@H]3c3ccccc3)C2)C[C@H]1C(=O)N[C@H]1C[C@@H]1c1ccccc1` [Compound 52, (3S,3′S,4S,4′S)-1,1′-((2E,4E)-Hexa-2,4-dienedioyl)-bis(N^3,N^4-bis((1S,2R)-2-phenylcyclopropyl)-pyrrolidine-3,4-dicarboxamide)], the EC50 in assay [1] (setting [11]) and in assay [2] (setting [12]) was more than 5000 nM in each case.
`O=C(NCCc1ccc(F)cc1)[C@@H]1CN(C(=O)c2cccc(C(=O)N3C[C@@H](C(=O)NCCc4ccc(F)cc4)[C@H](C(=O)NCCc4ccc(F)cc4)C3)c2)C[C@H]1C(=O)NCCc1ccc(F)cc1` [Compound 103, (3S,3′S,4S,4′S)-1,1′-Isophthaloyl-bis-(N^3,N^4-bis(4-fluorophenethyl)pyrrolidine-3,4-dicarboxamide)]: the half-maximal effective concentration (EC50) in assay [1] (THP-1, Table 7, TNF-α release from human THP-1 cells, read-out: EC50 (nM) (THP-1)) is more than 5000 nM; in assay [2] (Table 7, TNF-α release from mouse macrophages, read-out: EC50 (nM) (mouse)) it was more than 5000 nM.
With `CC(C)(C)OC(=O)COc1cc(C(=O)N2C[C@@H](C(=O)N[C@H]3C[C@@H]3c3ccccc3)[C@H](C(=O)N[C@H]3C[C@@H]3c3ccccc3)C2)ccc1C(=O)N1C[C@@H](C(=O)N[C@H]2CC2c2ccccc2)[C@H](C(=O)N[C@H]2C[C@@H]2c2ccccc2)C1` (stereo partly drawn) [Compound 147, tert-Butyl 2-(2,5-Bis((3S,4S)-3,4-bis(((1S,2R)-2-phenylcyclopropyl)carbamoyl)-pyrrolidine-1-carbonyl)phenoxy)acetate], the EC50 was found to be 40 nM in assay [1] (setting [7]) and 260 nM in assay [2] (setting [8]).

Source of the values: patent publication US11040959B2, “Diprovocims: a new and potent class of TLR agonists” (The Scripps Research Institute, priority 2016, dated 2021).
